This note sets out measurements from patent publication US9486506B2 (Novo Nordisk A/S, priority 2011, dated 2016).

One data set deals with T1, glucagon receptor (Homo sapiens, UniProt P47871).
T1 construct: expressed in transfected cells
Kind of data set: Assay (I) Glucagon activity (cAMP biosensor, FLIPR). The format is cell-based.

A short description of data set [1]: Assay (X) Chemical stability assessment by RP-UPLC. It is filed as physicochemical. Particulars: pH 8.15, 14 days at 37° C. vs 5° C., 333 μM.

Numbered stars: 1 amine (or outer) side, 2 acyl side, 3 side chain; on linkers, the order of the positions; unused ones are H or OH. Side chains are listed from the residue outwards. Peptide text beside a SMILES is read from it. * marks the point of attachment. C18 diacid = O=C(O)CCCCCCCCCCCCCCCCC(=O)*; C16 diacid = O=C(O)CCCCCCCCCCCCCCC(=O)*; γGlu = O=C(O)[C@H](CCC(=O)[*:2])N[*:1]; AEEA = NCCOCCOCC(=O)O

T1 sequence (P47871 26-477): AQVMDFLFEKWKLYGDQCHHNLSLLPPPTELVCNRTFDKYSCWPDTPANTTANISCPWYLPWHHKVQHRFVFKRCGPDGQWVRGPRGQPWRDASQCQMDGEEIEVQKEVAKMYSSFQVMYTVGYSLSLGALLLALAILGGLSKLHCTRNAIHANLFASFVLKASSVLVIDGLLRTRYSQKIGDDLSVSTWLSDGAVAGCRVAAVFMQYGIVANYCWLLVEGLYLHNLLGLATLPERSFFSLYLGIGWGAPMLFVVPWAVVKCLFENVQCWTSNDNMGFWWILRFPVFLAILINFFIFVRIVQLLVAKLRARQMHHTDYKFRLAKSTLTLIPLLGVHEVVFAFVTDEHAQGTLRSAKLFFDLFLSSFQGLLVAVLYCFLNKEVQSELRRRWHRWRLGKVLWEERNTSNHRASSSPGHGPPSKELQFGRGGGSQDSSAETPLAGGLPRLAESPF

Usually EC50 stands for the midpoint of the concentration-response curve. In turn, `CC(C)C[C@H](NC(=O)[C@H](Cc1c[nH]c2ccccc12)NC(=O)[C@H](CCCCNC(=O)COCCOCCNC(=O)COCCOCCNC(=O)CC[C@H](NC(=O)CC[C@H](NC(=O)CC[C@H](NC(=O)CCCCCCCCCCCCCCCCC(=O)O)C(=O)O)C(=O)O)C(=O)O)NC(=O)[C@@H](NC(=O)[C@H](Cc1ccccc1)NC(=O)[C@H](CCC(=O)O)NC(=O)[C@H](CCC(N)=O)NC(=O)[C@H](C)NC(=O)[C@H](CCCNC(=N)N)NC(=O)[C@H](CCCNC(=N)N)NC(=O)[C@@H](NC(=O)[C@H](CC(=O)O)NC(=O)[C@H](CC(C)C)NC(=O)[C@H](Cc1ccc(O)cc1)NC(=O)[C@H](CCCCN)NC(=O)[C@H](CO)NC(=O)[C@@H](NC(=O)[C@H](CC(=O)O)NC(=O)[C@H](CO)NC(=O)[C@@H](NC(=O)[C@H](Cc1ccccc1)NC(=O)[C@@H](NC(=O)CNC(=O)[C@H](CCC(N)=O)NC(=O)[C@H](CO)NC(=O)[C@@H](N)Cc1c[nH]cn1)[C@@H](C)O)[C@@H](C)O)C(C)C)[C@@H](C)O)C(C)C)C(=O)N[C@@H](CC(C)C)C(=O)N[C@@H](CO)C(=O)N[C@H](C(=O)O)[C@@H](C)O` [Example 62, N^ε24-[2-[2-[2-[[2-[2-[2-[[(4S)-4-carboxy-4-[[(4S)-4-carboxy-4-[[(4S)-4-carboxy-4-(17-carboxyheptadecanoylamino)butanoyl]amino]butanoyl]amino]butanoyl]amino]ethoxy]ethoxy]acetyl]amino]ethoxy]ethoxy]acetyl]-[Val10,Thr16,Glu21,Lys24,Leu27,Ser28]-Glucagon] (H-HSQGTFTSDVSKYLDTRRAQEFVK([AEEA-AEEA-γGlu-γGlu-γGlu-C18 diacid])WLLST-OH) yielded a concentration for a half-maximal effect (EC50) on glucagon receptor of 0.08 nM. For the same molecule, the “Chemical stability [Purity loss/14 days 37 C.]” value in data set [1] was found to be 5.6%.
`CC(C)C[C@H](NC(=O)[C@H](CC(=O)O)NC(=O)[C@H](CC(C)C)NC(=O)[C@H](Cc1ccc(O)cc1)NC(=O)[C@H](CCCCN)NC(=O)[C@H](CO)NC(=O)[C@H](Cc1ccc(O)cc1)NC(=O)[C@H](CC(=O)O)NC(=O)[C@H](CO)NC(=O)[C@@H](NC(=O)[C@H](Cc1ccccc1)NC(=O)[C@@H](NC(=O)CNC(=O)[C@H](CCC(N)=O)NC(=O)[C@H](CO)NC(=O)[C@@H](N)Cc1c[nH]cn1)[C@@H](C)O)[C@@H](C)O)C(=O)N[C@@H](CCCNC(=N)N)C(=O)N[C@@H](CCCNC(=N)N)C(=O)N[C@@H](C)C(=O)N[C@@H](CCC(N)=O)C(=O)N[C@@H](CC(=O)O)C(=O)N[C@@H](Cc1ccccc1)C(=O)N[C@H](C(=O)N[C@@H](CCCCNC(=O)CC[C@H](NC(=O)CC[C@H](NC(=O)CC[C@H](NC(=O)CC[C@H](NC(=O)CCCCCCCCCCCCCCCCC(=O)O)C(=O)O)C(=O)O)C(=O)O)C(=O)O)C(=O)N[C@@H](Cc1c[nH]c2ccccc12)C(=O)N[C@@H](CC(C)C)C(=O)N[C@@H](CC(C)C)C(=O)N[C@@H](CO)C(=O)N[C@H](C(N)=O)[C@@H](C)O)C(C)C` [Example 77, N^ε24-[(4S)-4-carboxy-4-[[(4S)-4-carboxy-4-[[(4S)-4-carboxy-4-[[(4S)-4-carboxy-4-(17-carboxyheptadecanoylamino)butanoyl]amino]butanoyl]amino]butanoyl]amino]butanoyl]-[Leu16,Lys24,Leu27,Ser28]-Glucagon amide] came in with a half-maximal effective concentration (EC50) at glucagon receptor of 0.812 nM. The “Chemical stability [Purity loss/14 days 37 C.]” value in data set [1] was 4.1%.
For `CC(C)C[C@H](NC(=O)[C@H](Cc1ccc(O)cc1)NC(=O)[C@H](CCCCN)NC(=O)[C@H](CO)NC(=O)[C@H](Cc1ccc(O)cc1)NC(=O)[C@H](CC(=O)O)NC(=O)[C@H](CO)NC(=O)[C@@H](NC(=O)[C@H](Cc1ccccc1)NC(=O)[C@@H](NC(=O)CNC(=O)[C@H](CCC(N)=O)NC(=O)[C@H](CO)NC(=O)[C@@H](N)Cc1c[nH]cn1)[C@@H](C)O)[C@@H](C)O)C(=O)N[C@@H](CC(=O)O)C(=O)N[C@@H](CCC(=O)O)C(=O)N[C@@H](CCCNC(=N)N)C(=O)N[C@@H](CCCNC(=N)N)C(=O)N[C@@H](C)C(=O)N[C@@H](CCC(N)=O)C(=O)N[C@@H](CC(=O)O)C(=O)N[C@@H](Cc1ccccc1)C(=O)N[C@H](C(=O)N[C@@H](CCCCNC(=O)CC[C@H](NC(=O)CC[C@H](NC(=O)COCCOCCNC(=O)COCCOCCNC(=O)CC[C@H](NC(=O)CCCCCCCCCCCCCCCCC(=O)O)C(=O)O)C(=O)O)C(=O)O)C(=O)N[C@@H](Cc1c[nH]c2ccccc12)C(=O)N[C@@H](CC(C)C)C(=O)N[C@@H](CC(C)C)C(=O)N[C@@H](CO)C(=O)N[C@H](C(=O)O)[C@@H](C)O)C(C)C` [Example 41, N^ε24-[(4S)-4-carboxy-4-[[(4S)-4-carboxy-4-[[2-[2-[2-[[2-[2-[2-[[(4S)-4-carboxy-4-(17-carboxyheptadecanoylamino)butanoyl]amino]ethoxy]ethoxy]acetyl]amino]ethoxy]ethoxy]acetyl]amino]butanoyl]amino]butanoyl]-[Glu16,Lys24,Leu27,Ser28]-Glucagon], in that order: 0.13 nM and 7.3%.
Consider `CC(C)C[C@H](NC(=O)[C@H](Cc1ccc(O)cc1)NC(=O)[C@H](CCCNC(=N)N)NC(=O)[C@H](CO)NC(=O)[C@H](Cc1ccc(O)cc1)NC(=O)[C@H](CC(=O)O)NC(=O)[C@H](CO)NC(=O)[C@@H](NC(=O)[C@H](Cc1ccccc1)NC(=O)[C@@H](NC(=O)CNC(=O)[C@H](CCC(N)=O)NC(=O)[C@H](CO)NC(=O)[C@@H](N)Cc1c[nH]cn1)[C@@H](C)O)[C@@H](C)O)C(=O)N[C@@H](CC(=O)O)C(=O)N[C@@H](C)C(=O)N[C@@H](CCCNC(=N)N)C(=O)N[C@@H](CCCNC(=N)N)C(=O)N[C@@H](C)C(=O)N[C@@H](CCC(N)=O)C(=O)N[C@@H](CC(=O)O)C(=O)N[C@@H](Cc1ccccc1)C(=O)N[C@H](C(=O)N[C@@H](CCCCNC(=O)CC[C@H](NC(=O)CC[C@H](NC(=O)CC[C@H](NC(=O)CCCCCCCCCCCCCCC(=O)O)C(=O)O)C(=O)O)C(=O)O)C(=O)N[C@@H](Cc1c[nH]c2ccccc12)C(=O)N[C@@H](CC(C)C)C(=O)N[C@@H](CC(C)C)C(=O)N[C@@H](CO)C(=O)N[C@H](C(=O)O)[C@@H](C)O)C(C)C` [Example 72, N^ε24-[(4S)-4-carboxy-4-[[(4S)-4-carboxy-4-[[(4S)-4-carboxy-4-(15-carboxypentadecanoylamino)butanoyl]amino]butanoyl]amino]butanoyl]-[Arg12,Ala16,Lys24,Leu27,Ser28]-Glucagon] (H-HSQGTFTSDYSRYLDARRAQDFVK([γGlu-γGlu-γGlu-C16 diacid])WLLST-OH), for which it took 0.016 nM to reach a half-maximal effect at glucagon receptor (EC50). For the same molecule, the “Chemical stability [Purity loss/14 days 37 C.]” value in data set [1] was determined as 6.1%.
Molecule `CC(C)C[C@H](NC(=O)[C@H](Cc1ccc(O)cc1)NC(=O)[C@H](CCCCN)NC(=O)[C@H](CO)NC(=O)[C@@H](NC(=O)[C@H](CC(=O)O)NC(=O)[C@H](CO)NC(=O)[C@@H](NC(=O)[C@H](Cc1ccccc1)NC(=O)[C@@H](NC(=O)CNC(=O)[C@H](CCC(N)=O)NC(=O)[C@H](CO)NC(=O)[C@@H](N)Cc1c[nH]cn1)[C@@H](C)O)[C@@H](C)O)C(C)C)C(=O)N[C@@H](CCC(=O)O)C(=O)N[C@@H](CO)C(=O)N[C@@H](CCCNC(=N)N)C(=O)N[C@@H](CCCNC(=N)N)C(=O)N[C@@H](C)C(=O)N[C@@H](CCC(N)=O)C(=O)N[C@@H](CCC(=O)O)C(=O)N[C@@H](Cc1ccccc1)C(=O)N[C@H](C(=O)N[C@@H](CCCCNC(=O)CC[C@H](NC(=O)CC[C@H](NC(=O)CC[C@H](NC(=O)CC[C@H](NC(=O)CCCCCCCCCCCCCCCCC(=O)O)C(=O)O)C(=O)O)C(=O)O)C(=O)O)C(=O)N[C@@H](Cc1c[nH]c2ccccc12)C(=O)N[C@@H](CC(C)C)C(=O)N[C@@H](CC(C)C)C(=O)N[C@@H](CO)C(=O)N[C@H](C(=O)O)[C@@H](C)O)C(C)C` [Example 50, N^ε24-[(4S)-4-carboxy-4-[[(4S)-4-carboxy-4-[[(4S)-4-carboxy-4-[[(4S)-4-carboxy-4-(17-carboxyheptadecanoylamino)butanoyl]amino]butanoyl]amino]butanoyl]amino]butanoy]-[Val10,Glu15,Glu21,Lys24,Leu27,Ser28]-Glucagon] (H-HSQGTFTSDVSKYLESRRAQEFVK([γGlu-γGlu-γGlu-γGlu-C18 diacid])WLLST-OH) returned a half-maximal effective concentration (EC50) at glucagon receptor of 0.118 nM. In addition, in data set [1], the “Chemical stability [Purity loss/14 days 37 C.]” value is listed as 4.8%.
The molecule `CC(C)C[C@H](NC(=O)[C@H](Cc1c[nH]c2ccccc12)NC(=O)[C@H](CCCCNC(=O)CC[C@H](NC(=O)CC[C@H](NC(=O)CC[C@H](NC(=O)CC[C@H](NC(=O)CCCCCCCCCCCCCCCCC(=O)O)C(=O)O)C(=O)O)C(=O)O)C(=O)O)NC(=O)[C@@H](NC(=O)[C@H](Cc1ccccc1)NC(=O)[C@H](CC(=O)O)NC(=O)[C@H](CCC(N)=O)NC(=O)[C@H](C)NC(=O)[C@H](CCCNC(=N)N)NC(=O)[C@H](CCCNC(=N)N)NC(=O)[C@@H](NC(=O)[C@H](CC(=O)O)NC(=O)[C@H](CC(C)C)NC(=O)[C@H](Cc1ccc(O)cc1)NC(=O)[C@H](CCCCN)NC(=O)[C@H](CO)NC(=O)[C@H](Cc1ccc(O)cc1)NC(=O)[C@H](CC(=O)O)NC(=O)[C@H](CO)NC(=O)[C@@H](NC(=O)[C@H](Cc1ccccc1)NC(=O)[C@@H](NC(=O)CNC(=O)[C@H](CCC(N)=O)NC(=O)[C@H](CO)NC(=O)[C@@H](N)Cc1c[nH]cn1)[C@@H](C)O)[C@@H](C)O)C(C)C)C(C)C)C(=O)N[C@@H](CC(C)C)C(=O)N[C@@H](CO)C(=O)N[C@H](C(=O)O)[C@@H](C)O` [Example 78, N^ε24-[(4S)-4-carboxy-4-[[(4S)-4-carboxy-4-[[(4S)-4-carboxy-4-[[(4S)-4-carboxy-4-(17-carboxyheptadecanoylamino)butanoyl]amino]butanoyl]amino]butanoyl]amino]butanoyl]-[Val16,Lys24,Leu27,Ser28]-Glucagon] had an EC50 at glucagon receptor of 0.134 nM. The “Chemical stability [Purity loss/14 days 37 C.]” value in data set [1] is 4.3%.
